Source: patent publication US20050159599A1, “Cyclic compound, process for producing the same, and pest control agent” (priority 2002, published 2005)

Assays:
Assay type in all cases: in vivo
Spodoptera litura [1] = assay: Insecticidal effect for Spodoptera litura by immersion treatment of host crop root (Test Example 4); conditions: 25 ppm, soybean root immersion 5 days, second-instar larvae of Spodoptera litura, fifth day after; for pest or weed control at 25 ppm: 120 h, read-out: rate of dead pests (%)
Summary of the method: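 Soil was washed from the roots of soybean plants at the primary-leaf stage, and the roots were immersed in a pesticidal solution held in a light-shielded 100 ml Erlenmeyer flask. The solution was made from acetone containing Tween 20, diluted with ion-exchange water. Five days after root immersion, two primary leaves were cut and placed in a 180 ml cup with ten second-instar Spodoptera litura larvae, then kept at 25° C. Survivors were counted five days later. The rate of dead pests (%) was calculated as dead pests divided by test pests, times 100.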

Tetranychus urticae = assay: Acaricidal effect for Tetranychus urticae (Test Example 5); conditions: 100 ppm (table); spray on kidney bean with ten female imagoes; survivors counted on second and seventh day, 25° C.
Method: Acaricidal Effect for Tetranychus urticae
Ten female imagoes Tetranychus urticae were set free on a kidney bean wherein primary leaves had just developed. On the following day, a pesticidal solution, which was prepared by dissolving 5 mg of test compound (represented by the compound Nos. in the above Examples) in 0.5 ml of acetone containing Tween 20 ([…]) with Dain (trade name, sticker) water diluted 5000-fold, was sprayed with spray gun in the amounts wherein the pesticidal solution dripped. The kidney bean was left in a temperature-controlled breeding room (25° C.). On the second and seventh day after treatment, the number of surviving Tetranychus urticae was examined. The rate of decrease was calculated by the following formula. rate of decrease (%)=(1−(S2/(5.59×(10+(10+S1)/2+S1))))×100 In the above formula, • S1; the number of surviving imagoes on the second day after • S2; the number of surviving pests on the seventh day after […]

Spodoptera litura [2] = assay: Insecticidal effect for Spodoptera litura by spraying treatment to host crop (Test Example 2); conditions: 100 ppm, sprayed on soybean, third-instar larvae of Spodoptera litura, fifth day after; for pest or weed control at 100 ppm: 120 h, read-out: rate of dead pests (%)
Summary of the method: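 Soybean plants with fully developed primary leaves sprayed to runoff with 100 ppm compound (acetone/Tween 20, sticker water). Dried leaves given to ten third-instar larvae at 25° C.; survivors counted on day 5, mortality as dead/tested × 100.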

Plutella xylostella [3] = assay: Insecticidal effect for Plutella xylostella by immersion treatment of host crop (Test Example 1); conditions: cabbage leaf dipped, second-instar larvae of Plutella xylostella, fifth day after; for rate of dead pests (%): 100 ppm; for pest or weed control at 100 ppm: foliar, 120 h, read-out: rate of dead pests (%)
Method: Insecticidal Effect for Plutella xylostella by Immersion Treatment of Host Crop One true leaf of 7 to 8-leave stage cabbage was cut off and dipped in a pesticidal solution for a few seconds, which was prepared by dissolving 5 mg of test compound (represented by the compound Nos. in the above Examples) in 0.5 ml of acetone containing Tween 20 (trade name) and then diluting it to the prescribed concentration (100 ppm) with Dain (trade name, sticker) water diluted 5000-fold. After drying the pesticidal solution, the leaf was put into an ice cream cup (180 ml), and ten second-instar larvae of Plutella xylostella were set free therein. The cup was left in a temperature-controlled breeding room (24° C.). On the fifth day after, the number of surviving Plutella xylostella was examined. The rate of dead pests was calculated by the following formula. rate of dead pests (%)=(number of dead pests/number of test pests)×100

Plutella xylostella [4] = assay: Insecticidal effect for Plutella xylostella by immersion treatment of host crop root (Test Example 3); conditions: 25 ppm, cabbage root immersed 5 days, ten second-instar larvae on stem and leaves, counted on the fifth day, 24° C.; for pest or weed control at 25 ppm: Plutella xylostella, 120 h, read-out: rate of dead pests (%)
Method: Insecticidal Effect for Plutella xylostella by Immersion Treatment of Host Crop Root
Roots of 4-leave stage cabbage was washed with tap water to remove soil, and then immersed in a pesticidal solution which was prepared by dissolving 5 mg of test compound (represented by the compound Nos. in the above Examples) in 0.5 ml of acetone containing Tween 20 (trade name) and then diluting it to the prescribed concentration (25 ppm) with ion-exchange water, and which was filled in a light-shielded Erlenmeyer flask (100 ml). On the fifth day after immersion of root, the root was cut off, and the stem and leaves were put into an ice cream cup (180 ml). Ten second-instar larvae of Plutella xylostella were set free therein, and the cup was left in a temperature-controlled breeding room (24° C.). On the fifth day after, the number of surviving Plutella xylostella was examined. The rate of dead pests was calculated by the following formula. rate of dead pests (%)=(number of dead pests/number of test pests)×100

Row | Structure (SMILES) | rate of decrease (%) (Tetranychus urticae) | rate of dead pests (%) (Spodoptera litura [2]) | rate of dead pests (%) (Plutella xylostella [3]) | further results
1 | COC(=O)C(=O)N1CN(C(=O)c2c(F)cccc2F)C(=O)N(c2ccc(Oc3ccc(C(F)(F)F)cc3Cl)cc2F)C1 [III-37, Methyl 2-[3-[4-(2-chloro-4-trifluoromethylphenoxy)-2-fluorophenyl]-5-(2,6-difluorobenzoyl)hexahydro-4-oxo-1,3,5-triazin-1-yl]-2-oxoacetate] | 97 |  |  | pest or weed control at 25 ppm (Spodoptera litura [1]): 95%; pest or weed control at 100 ppm (Spodoptera litura [2]): 100%
2 | CONC(=O)C(=O)N1CN(C(=O)c2c(F)cccc2F)C(=O)N(c2ccc(Oc3ccc(C(F)(F)F)cc3Cl)cc2F)C1 [III-49] | 96 | 100 |  | rate of dead pests (%) (Spodoptera litura [1]): 95%
3 | C[S+]([O-])CC(=O)N1CN(C(=O)c2c(F)cccc2F)C(=O)N(c2ccc(Oc3ccc(C(F)(F)F)cc3Cl)cc2F)C1 (stereo not shown) [III-46] | 97 |  |  | 
4 | COC(=O)SN1CN(C(=O)c2c(F)cccc2F)C(=O)N(c2ccc(Oc3ccc(C(F)(F)F)cc3Cl)cc2F)C1 [III-31] | 99 | 100 | 100 | 
5 | CNC(=O)C(=O)N1CN(C(=O)c2c(F)cccc2F)C(=O)N(c2ccc(Oc3ccc(C(F)(F)F)cc3Cl)cc2F)C1 [III-42] | 98 | 100 |  | 
6 | CN1CN(C(=O)c2c(F)cccc2F)C(=O)N(c2ccc(Oc3ccc(C(F)(F)F)cc3Cl)cc2F)C1 [III-21] | 99 | 100 |  | 
7 | CON(C)C(=O)C(=O)N1CN(C(=O)c2c(F)cccc2F)C(=O)N(c2ccc(Oc3ccc(C(F)(F)F)cc3Cl)cc2F)C1 [III-48] | 95 |  | 100 | 
8 | CC(C)N1CN(C(=O)c2c(F)cccc2F)C(=O)N(c2ccc(Oc3ccc(C(F)(F)F)cc3Cl)cc2F)C1 [III-25] | 97 | 100 | 100 | 
9 | NC(=O)C(=O)N1CN(C(=O)c2c(F)cccc2F)C(=O)N(c2ccc(Oc3ccc(C(F)(F)F)cc3Cl)cc2F)C1 [III-41] | 97 | 100 | 100 | 
10 | O=C(OCc1ccccc1)C(=O)N1CN(C(=O)c2c(F)cccc2F)C(=O)N(c2ccc(Oc3ccc(C(F)(F)F)cc3Cl)cc2F)C1 [III-39, Benzyl 2-[3-[4-(2-chloro-4-trifluoromethylphenoxy)-2-fluorophenyl]-5-(2,6-difluorobenzoyl)hexahydro-4-oxo-1,3,5-triazin-1-yl]-2-oxoacetate] | 97 |  |  | pest or weed control at 100 ppm (Plutella xylostella [3]): 100%; pest or weed control at 100 ppm (Spodoptera litura [2]): 100%
11 | C=CCN1CN(C(=O)c2c(F)cccc2F)C(=O)N(c2ccc(Oc3ccc(C(F)(F)F)cc3Cl)cc2F)C1 [III-24] | 95 | 100 | 100 | 
12 | O=C(c1c(F)cccc1F)N1COCN(c2ccc([S+]([O-])C(F)(F)C(F)F)cc2)C1=O (stereo not shown) [I-20] |  | 100 | 100 | rate of dead pests (%) (Spodoptera litura [1]): 95%; rate of dead pests (%) (Plutella xylostella [4]): 100%
13 | O=C(c1c(F)cccc1F)N1CNCN(c2ccc(Oc3ccc(C(F)(F)F)cc3Cl)cc2F)C1=O [III-27, 1-[4-(2-chloro-4-trifluoromethylphenoxy)-2-fluorophenyl]-3-(2,6-difluorobenzoyl)tetrahydro-1,3,5-triazin-2(1H)-one] | 96 |  |  | pest or weed control at 100 ppm (Plutella xylostella [3]): 100%; pest or weed control at 100 ppm (Spodoptera litura [2]): 100%
14 | CSc1ccc(N2COCN(C(=O)c3c(F)cccc3Cl)C2=O)c(F)c1 [I-205] |  | 100 | 100 | rate of dead pests (%) (Spodoptera litura [1]): 100%; rate of dead pests (%) (Plutella xylostella [4]): 90%
15 | O=C(O)C(=O)N1CN(C(=O)c2c(F)cccc2F)C(=O)N(c2ccc(Oc3ccc(C(F)(F)F)cc3Cl)cc2F)C1 [III-38, 2-[3-[4-(2-chloro-4-trifluoromethylphenoxy)-2-fluorophenyl]-5-(2,6-difluorobenzoyl)hexahydro-4-oxo-1,3,5-triazin-1-yl]-2-oxoacetic Acid] | 98 |  |  | pest or weed control at 25 ppm (Spodoptera litura [1]): 100%; pest or weed control at 25 ppm (Plutella xylostella [4]): 90%; pest or weed control at 100 ppm (Spodoptera litura [2]): 100%
16 | CN1CN(C(=O)c2c(F)cccc2F)C(=O)N(c2ccc(SC(F)F)cc2F)C1 [III-148, 1-(2,6-difluorobenzoyl)-3-[4-(difluoromethylthio)-2-fluorophenyl]-5-methyltetrahydro-1,3,5-triazin-2(1H)-one] |  |  |  | pest or weed control at 25 ppm (Spodoptera litura [1]): 100%; pest or weed control at 25 ppm (Plutella xylostella [4]): 100%; pest or weed control at 100 ppm (Plutella xylostella [3]): 100%; pest or weed control at 100 ppm (Spodoptera litura [2]): 100%
17 | COC(=O)C(=O)N1CN(C(=O)c2c(F)cccc2F)C(=O)N(c2cc(Cl)c(F)c(Cl)c2F)C1 [III-64] |  | 100 | 100 | rate of dead pests (%) (Spodoptera litura [1]): 90%; rate of dead pests (%) (Plutella xylostella [4]): 90%
18 | O=C(c1c(F)cccc1F)N1COCN(c2ccc([S+]([O-])C(F)(F)C(F)Cl)cc2)C1=O (stereo not shown) [I-11] |  | 100 | 100 | rate of dead pests (%) (Spodoptera litura [1]): 100%; rate of dead pests (%) (Plutella xylostella [4]): 100%
19 | CC(=O)N1CN(C(=O)c2c(F)cccc2F)C(=O)N(c2ccc(SC(F)F)cc2F)C1 [III-149] |  | 100 | 100 | rate of dead pests (%) (Spodoptera litura [1]): 100%; rate of dead pests (%) (Plutella xylostella [4]): 95%
20 | O=C(c1c(F)cccc1F)N1CN(S(=O)(=O)C(F)(F)F)CN(c2ccc(Oc3ccc(C(F)(F)F)cc3Cl)cc2F)C1=O [III-35] | 97 | 100 |  | 
21 | CSCC(=O)N1CN(C(=O)c2c(F)cccc2F)C(=O)N(c2ccc(Oc3ccc(C(F)(F)F)cc3Cl)cc2F)C1 [III-45] | 100 | 100 | 100 | 
22 | O=C(CBr)N1CN(C(=O)c2c(F)cccc2F)C(=O)N(c2ccc(Oc3ccc(C(F)(F)F)cc3Cl)cc2F)C1 [III-44] | 96 | 100 | 100 | 
